Four molecules from patent US12459898B2, “Polycationic amphiphiles as antimicrobial agents and methods using same” (Temple University-Of The Commonwealth System of Higher …, priority 2016, dated 2025) can be followed below.

The structures appear in SMILES notation. Some results are limits rather than exact numbers.

Data set [1] concerns methicillin-susceptible Staphylococcus aureus MSSA (SH1000). The data set is described as follows: Minimum inhibitory concentration (MIC), S. aureus. In kind it is cell-based. The following applies: MH media, 37° C., 72 hours, visual growth. As to the method:
(§1) As used herein, the term “minimum inhibitory concentration (MIC)” refers to the lowest concentration of an antimicrobial agent that will inhibit the visible growth of a microorganism after overnight incubation. MIC values against bacteria, for example, the Gram-positive Staphylococcus aureus and Enterococcus faecalis and the Gram-negative Escherichia coli and Pseudomonas aeruginosa were determined by standard methods. See also P. A. Wayne, Methods for Dilution Antimicrobial Tests for Bacteria that Grow Aerobically; Approved Standard, Ninth Edition, 2012, CLSI Document M07-A9, Vol. 32 No. 2, which is incorporated by reference herein in its entirety.
(§2) For all biological assays, laboratory strains of methicillin-susceptible Staphylococcus aureus MSSA (SH1000), Enterococcus faecalis (OG1RF), Escherichia coli (MC4100), Pseudomonas aeruginosa (PAO1), community-acquired methicillin-resistant Staphylococcus aureus CA-MRSA (USA300-0114), and hospital-acquired methicillin-resistant Staphylococcus aureus HA-MRSA (ATCC 33591) were grown with shaking at 37° C. overnight from freezer stocks in 10 mL of the indicated media.
(§3) Compounds were serially diluted two-fold from stock solutions to yield twelve test concentrations. Overnight S. aureus, E. faecalis, E. coli, P. aeruginosa, USA300-0114 (CA-MRSA), and ATCC 33591 (HA-MRSA) cultures diluted to ca. 10^6 cfu/mL in MH media and 100 μL were inoculated into each well of a U-bottom 96-well plate (BD Biosciences, BD 351177) containing 100 μL of compound solution. Plates were incubated statically at 37° C. for 72 hours upon which time wells were evaluated visually for bacterial growth. The MIC was determined as the lowest concentration of compound resulting in no bacterial growth visible to the naked eye, based on the majority of three independent experiments. Aqueous DMSO controls were conducted as appropriate for each compound.

For data set [2], the system named is Enterococcus faecalis (OG1RF). As to the kind of experiment: Minimum inhibitory concentration (MIC), E. faecalis. In kind it is cell-based. The settings on record: MH media, 37° C., 72 hours, visual growth. Here is the method:
as §1, §2, §3

Data set [3] concerns Escherichia coli (MC4100). As to the kind of experiment: Minimum inhibitory concentration (MIC), E. coli. Type of data set: cell-based. The following applies: MH media, 37° C., 72 hours, visual growth. As to the method: as §1, §2, §3
The test system of data set [4] is Pseudomonas aeruginosa (PAO1). The data set is described as follows: Minimum inhibitory concentration (MIC), P. aeruginosa. Type of data set: cell-based. The settings on record: MH media, 37° C., 72 hours, visual growth. As to the method: as §1, §2, §3
Data set [5] relates to community-acquired methicillin-resistant Staphylococcus aureus CA-MRSA (USA300-0114). The data set is described as follows: Minimum inhibitory concentration (MIC), CA-MRSA. The following applies: MH media, 37° C., 72 hours, visual growth. Type of data set: cell-based. Here is the method: as §1, §2, §3
For data set [6], the system named is hospital-acquired methicillin-resistant Staphylococcus aureus HA-MRSA (ATCC 33591). As to the kind of experiment: microbe, parasite or virus in culture. Type of data set: cell-based. The settings on record: Staphylococcus aureus, 72 h, read-out: MIC, HA-MRSA. As to the method:
as §1, §2, §3

Data set [7] relates to red blood cells (mechanically defibrinated sheep blood). As to the kind of experiment: Red blood cell (RBC) lysis assay (Lysis20). In kind it is cell-based. The settings on record: sheep RBCs in PBS, 37° C., 1 hour, absorbance 540 nm; Table 1. An excerpt:
These assessments followed standard protocols (Minbiole et al., 2016, Tetrahedron, 72: 3559-3566, Forman et al., 2016, ChemMedChem, 11: 1401-1405, Forman et al., 2016, ChemMedChem, 11: 958-962, Mitchell et al., 2015, ChemBioChem, 16: 2299-2303, Jennings et al., 2015, ACS Inf. Dis, 1: 304-308, Paniak et al., 2014, Bioorg. Med. Chem. Lett, 24: 5824-5828, Ator et al., 2014, Bioorg. Med. Chem. Lett, 24: 3706-3709, Jennings et al., 2014, ChemBioChem, 15: 2211-2215, Black et al., 2014, Bioorg. Med. Chem. Lett, 24, 99-102, Grenier et al., 2012, Bioorg. Med. Chem. Lett, 22: 4055-4058).
RBC lysis assays were performed on mechanically defibrinated sheep blood (Hemostat Labs: DSB030). 1.5 mL of blood was placed into a microcentrifuge tube and centrifuged at 10,000 rpm for ten minutes. The supernatant was removed and the cells were resuspended with 1 mL of phosphate-buffered saline (PBS). The suspension was centrifuged as previously, the supernatant was removed, and cells were resuspended two more times. The final cell suspension was diluted twentyfold with PBS. The twentyfold suspension dilution was then aliquoted into microcentrifuge tubes containing compound serially diluted in PBS. TritonX (1% by volume) served as a positive control (100% lysis marker) and sterile PBS served as a negative control (0% lysis marker). Samples were then placed in an incubator at 37° C. and shaken at 200 rpm. After 1 hour, the samples were centrifuged at 10,000 rpm for ten minutes. The absorbance of the supernatant was measured with a UV spectrometer at a 540 nm wavelength.

In data set [8] the test system is six bacteria (SA, EF, EC, PA, CA-MRSA, HA-MRSA). The data set is described as follows: Antimicrobial activity (MIC) over the panel of six bacteria. Type of data set: cell-based. Here is the method:
(§4) For the tris-pyridine system, it was initially attempted to alkylate the commercially available O3Pyr, which led to no reaction under a number of SN2-type reaction conditions, presumably due to steric hindrance next to the nucleophilic pyridine nitrogen. The preparation of the “para” isomer via a precedented reductive amination shown in FIG. 4 (52%) was then carried out (Oh et al., 2007, Korean Chem. Soc, 28: 2193-2194, Abdel-Magid et al., 1996, J. Org. Chem, 61: 3849-3862). […] Attempts to prepare homologs led to variable yields and unacceptable purity. While not wishing to be bound by any particular theory it was hypothesized that this could have resulted from a fragmentation event driven by the central nitrogen, which might be circumvented by a change in the electronic distribution of the QAC. […] These amphiphiles were prepared in 71-97% yields, again after recrystallization or trituration. […]
Compounds were serially diluted two-fold from stock solutions to yield twelve test concentrations. […] Plates were incubated statically at 37° C. for 72 hours upon which time wells were evaluated visually for bacterial growth. The MIC was determined as the lowest concentration of compound resulting in no bacterial growth visible to the naked eye, based on the majority of three independent experiments. […]

Data set [9] can be described thus: Stability of the prepared amphiphiles. Type of data set: physicochemical. The following applies: observation after preparation. As to the method:
as §4

Regarding `CCCCCCCCCCC[n+]1ccc(CCCc2cc[n+](CCCCCCCCCCC)cc2)cc1` [2Pyr-11,11], the MIC was 0.5 µM in data set [1]; 0.25 µM in data set [2]; 0.5 µM in data set [3]; 2 µM in data set [4]; 0.25 µM in data set [5]; 0.5 µM in data set [6]. Also, the “Lysis20 (highest concentration at which <20% of RBCs are lysed)” value in data set [7] is given as 8 μm. In addition, in data set [8], the “antimicrobial activity / bioactivity in words” value is given as “nanomolar inhibition against 5 of 6 bacteria tested”.

With `CCCCCCCCCCCC[n+]1ccc(CN(Cc2cc[n+](CCCCCCCCCCCC)cc2)Cc2cc[n+](CCCCCCCCCCCC)cc2)cc1` [P3Pyr-12,12,12], the MIC in data set [1] came out at 2 µM; in data set [2], 2 µM; in data set [3], 2 µM; in data set [4] it was 8 µM; in data set [5] it was 1 µM; in data set [6] it was 2 µM. Besides, in data set [7], the “Lysis20 (highest concentration at which <20% of RBCs are lysed)” value came out at 8 μm. Further, the stability entry in [9] is given as “poor stability”.

As for `CCCCCCCCCC[n+]1ccc(CN(Cc2cc[n+](CCCCCCCCCC)cc2)Cc2cc[n+](CCCCCCCCCC)cc2)cc1` [P3Pyr-10,10,10], the MIC in [1] is 0.5 µM; in [2] it was 1 µM; in [3] it was 1 µM; in data set [4] it was 2 µM; in data set [5], 0.5 µM; in data set [6] it was 0.5 µM. Besides, the “Lysis20 (highest concentration at which <20% of RBCs are lysed)” value in data set [7] is 4 μm. For the same molecule, in data set [9], the stability result is recorded as “poor stability”.

`CCCCCCCCCCCCCCCCCC[n+]1cccc(CN(Cc2ccc[n+](CCCCCCCCCCCCCCCCCC)c2)Cc2ccc[n+](CCCCCCCCCCCCCCCCCC)c2)c1` [M3Pyr-18,18,18]: the MIC is 8 µM in [1]; 32 µM in data set [2]; 63 µM in [3]; above 250 µM in data set [4]; 4 µM in [5]; 4 µM in data set [6]. For the same molecule, the “Lysis20 (highest concentration at which <20% of RBCs are lysed)” value in data set [7] is on record as 8 μm.
